Measured values from paper PMC12194305, “Assessing Bioconcentration and Biotransformation of BDE-47 In Vitro: The Relevance of Bioavailable and Intracellular Concentrations” (Journal of Xenobiotics, 2025).
Values joined by “and” are separate entries in the source; they are usually repeats but may differ in a detail not shown here. Equal entries are not always repeated. Where two headings read alike, the source gives them in different places.

Legend:
ZFL cells [1] = test: Biotransformation of BDE-47 in ZFL cells (metabolites in cells and medium)
HepG2 cells = test system: HepG2 cells; design: method as in PMID 37289209; details: HepG2 cells 48 h, 20 mg·L^−1 BDE-47, calculated with estimated Cfree percentage, cited from earlier work
ZFL cells [2] = test system: ZFL cells; design: method as in PMID 39103099; details: exposure to 10 mg·L^−1 PHE, previous study; cited from earlier work
[3] = design: method as in PMID 39103099; details: binding constant to BSA protein of FBS; cited from earlier work
[4] = partition constant PA fiber/medium; cited from earlier work
[5] = Experimental determination of free bioavailable concentration (Cfree,exp) in exposure medium by SPME; type: in vitro ADME; details: for Cfree, exp: 24–48 h
Procedure: In parallel with the exposure experiment for the evaluation of bioaccumulation and biotransformation described in the previous sections, an experiment was performed to estimate experimentally the free bioavailable concentration (Cfree,exp) in the test medium. For this purpose, an experiment was designed to simulate the test conditions, and Cfree was determined using solid-phase microextraction (SPME), following the fiber method developed by Henneberger et al..
PDMS-coated glass microfibers (30 µm thick, 13.19 µL/m coating volume) were cut into 1.5 cm pieces and cleaned in methanol for more than 24 h prior to the experiment, with the solvent replaced at least three times. The cleaned and dried fiber was placed in a glass vial with 1 mL of sample exposure medium containing 1.8 and 2.6 mg·L^−1 BDE-47. Three replicates were prepared for each condition. A portion of the initial sample was stored at −20 °C until analysis. The vials were then sealed and incubated with rotation at 28 °C for 72 h until equilibrium of BDE-47 distribution among the fiber, medium, and binding to the predominant serum protein of the culture (Bovine serum albumin, BSA) was reached. Once at equilibrium, the fibers were extracted from the vials and desorbed with 400 µL isooctane for 24 h with rotation. Finally, the extract was analyzed by GC-MS-µECD, as described in Section 2.5. The concentration of BDE-47 in the initial sample (Cmed,0h) and in the resulting media after equilibration (Cmed,eq) was determined according to the procedure described in Section 2.5, to confirm the actual mass balance.
Since this study evaluates and discusses the behavior of BDE-47 in comparison to observations from a previous study with phenanthrene, as explained in the introduction section, the experimental Cfree of phenanthrene was also determined, as it had not been measured previously. In this case, the difference in the process was that PA fibers (36 µm thick, 16.71 µL/m coating volume) were used. Samples of 10 and 20 mg·L^−1 PHE were prepared, and the fibers and samples were incubated for 24–48 h until equilibrium was reached, and desorbed with hexane for 3 h.
To determine the free concentration, concentration in the SPME fiber (Cfiber) was first estimated using Equation (1) from the concentration measured in the desorption extract (Cdes), the desorption volume (Vdes) and the coating volume of the fiber (Vfiber). This volume was estimated according to the coating volume and the length of the fiber.(1) Cfiber=Cdes·Vdes/Vfiber
Next, Cfree,exp was determined at the time before the SPME fiber was added to the system, according to Equation (2). For this, the concentration measured in the fiber equilibrated with the medium (PDMS-BDE-47-BSA or PA-PHE-BSA), the concentration measured in the initial sample (Cmed,0h), and the partition constant of the equilibrium formed between the fiber and the medium (log DPDMS/medium; BDE-47 = 5.84 [25]; log DPA/medium; PHE = 6.69 [26]) were used.(2) Cfree=Cmed,0h·Vsample/Dfiber/medium·Cmed,0h·Vsample/Cfiber−Vfiber

ZFL cells [6] = details: cited from earlier work; for Ratio MBM/experimental of internal concentration: ref De Oro-Carretero and Sanz-Landaluze 2024
[7] = design: method as in PMID 36264934; details: dialysis, DMEM + 10% newborn calf serum, Cnom 5 μmol·L^−1, 1% DMSO; cited from earlier work
[8] = test system: zebrafish eleutheroembryos; design: method as in PMID 36705440; details: zebrafish embryos 48 h, larvae samples; cited from earlier work

## Oc1cc(Br)ccc1Oc1ccc(Br)cc1Br [2′-OH-BDE-28]
ZFL cells [1]; BDE-47 at 1.6 and 2.8 mg·L^−1, 24–72 h
  detection of the metabolite in ZFL cell and medium samples on exposure to BDE-47: significant and increasing concentration over time

## Oc1cc(Oc2ccc(Br)cc2Br)c(Br)cc1Br [5-OH, 5-OH-BDE-47]
HepG2 cells; medium samples
  biotransformation ratio metabolite / BDE-47 concentration: 0.2

## c1ccc2c(c1)ccc1ccccc12 [PHE, phenanthrene]
ZFL cells [2]
  BCF48 h: 393 L/kg
  BCFk: 986 L/kg
[3]
  log DBSA/W: 3.81
[4]
  log DPA/medium: 6.69
[5]; Cnom 10 mg·L^−1, % of total concentration
  % Cfree, exp: 2.4% and 2.4 ± 0.2%
[5]; Cnom 10 mg·L^−1, PA fiber
  Cfree, exp: (0.22 ± 0.02) mg·L^−1
[5]; Cnom 20 mg·L^−1, % of total concentration
  % Cfree, exp: 2.9% and 2.9 ± 0.2%
[5]; Cnom 20 mg·L^−1, PA fiber
  Cfree, exp: (0.52 ± 0.04) mg·L^−1
ZFL cells [6]; 24h, 10 mg·L-1, ZFL cells
  Ratio MBM/experimental of internal concentration: 491%
ZFL cells [6]; 24h, 50 mg·L-1, ZFL cells
  Ratio MBM/experimental of internal concentration: 510%
ZFL cells [6]; 48h, 10 mg·L-1, ZFL cells
  Ratio MBM/experimental of internal concentration: 532%
ZFL cells [6]; 48h, 50 mg·L-1, ZFL cells
  Ratio MBM/experimental of internal concentration: 449%
ZFL cells [6]; 72h, 10 mg·L-1, ZFL cells
  Ratio MBM/experimental of internal concentration: 421%
ZFL cells [6]; 72h, 50 mg·L-1, ZFL cells
  Ratio MBM/experimental of internal concentration: 402%
ZFL cells [6]; ZFL cells, previous study
  BCFMBM: 1656 L/kg
  ratio of MBM vs. experimental Ccell: above 100%
ZFL cells [6]; assays with ZFL cells, previous study
  free concentration as % of total concentration: 1.7%

## Oc1c(Br)ccc(Oc2ccc(Br)cc2Br)c1Br [3-OH, 3-OH-BDE-47]
HepG2 cells; medium samples
  biotransformation ratio metabolite / BDE-47 concentration: 0.13
ZFL cells [1]; medium samples, 24 h, Cnominal BDE-47 1.6 mg·L^−1
  biotransformation ratio metabolite / free bioavailable BDE-47 concentration: 0.07
ZFL cells [1]; medium samples, 24 h, Cnominal BDE-47 2.8 mg·L^−1
  biotransformation ratio metabolite / free bioavailable BDE-47 concentration: 0.08
ZFL cells [1]; medium samples, 48 h, Cnominal BDE-47 1.6 mg·L^−1
  biotransformation ratio metabolite / free bioavailable BDE-47 concentration: 0.08
ZFL cells [1]; medium samples, 48 h, Cnominal BDE-47 2.8 mg·L^−1
  biotransformation ratio metabolite / free bioavailable BDE-47 concentration: 0.08
ZFL cells [1]; medium samples, 72 h, Cnominal BDE-47 1.6 mg·L^−1
  biotransformation ratio metabolite / free bioavailable BDE-47 concentration: 0.09
ZFL cells [1]; medium samples, 72 h, Cnominal BDE-47 2.8 mg·L^−1
  biotransformation ratio metabolite / free bioavailable BDE-47 concentration: 0.15

## CC/C(=C(\c1ccccc1)c1ccc(OCCN(C)C)cc1)c1ccccc1 [tamoxifen]
[7]
  decrease of free concentration from the initial concentration: up to 50%

## COc1cc(Oc2ccc(Br)cc2Br)c(Br)cc1Br [5-MeO, 5-MeO-BDE-47]
[8]
  biotransformation ratio metabolite / BDE-47 concentration: 0.06–0.13
HepG2 cells; cell samples
  biotransformation ratio metabolite / BDE-47 concentration: 0.10
ZFL cells [1]; cell samples, 24 h, Cnominal BDE-47 1.6 mg·L^−1
  biotransformation ratio metabolite / free bioavailable BDE-47 concentration: 0.11
ZFL cells [1]; cell samples, 24 h, Cnominal BDE-47 2.8 mg·L^−1
  biotransformation ratio metabolite / free bioavailable BDE-47 concentration: 0.17
ZFL cells [1]; cell samples, 48 h, Cnominal BDE-47 1.6 mg·L^−1
  biotransformation ratio metabolite / free bioavailable BDE-47 concentration: 0.12
ZFL cells [1]; cell samples, 48 h, Cnominal BDE-47 2.8 mg·L^−1
  biotransformation ratio metabolite / free bioavailable BDE-47 concentration: 0.18
ZFL cells [1]; cell samples, 72 h, Cnominal BDE-47 1.6 mg·L^−1
  biotransformation ratio metabolite / free bioavailable BDE-47 concentration: 0.15
ZFL cells [1]; cell samples, 72 h, Cnominal BDE-47 2.8 mg·L^−1
  biotransformation ratio metabolite / free bioavailable BDE-47 concentration: 0.20
